What was measured:
WI-38 = assay: Cytotoxicity against human WI-38 cells assessed as cell viability after 48 hrs by MTT assay; format: cell-based; conditions: WI-38, 48 h
Huh-7 [1] = assay: Antiproliferative activity against human Huh-7 cells assessed as cell viability at 10 uM after 48 hrs by MTT assay relative to control; format: functional; conditions: read-out: Activity
HepG2 [2] = assay: Antiproliferative activity against human HepG2 cells assessed as cell viability at 10 uM after 48 hrs by MTT assay relative to control; format: functional; conditions: read-out: Activity
HepG2 [3] = assay: Antiproliferative activity against human HepG2 cells assessed as reduction in cell viability after 48 hrs by MTT assay; format: functional, cell-based; conditions: HepG2, 48 h
Hep 3B2 [4] = assay: Antiproliferative activity against human Hep3B cells assessed as cell viability at 10 uM after 48 hrs by MTT assay relative to control; format: functional; conditions: read-out: Activity
Hep 3B2 [5] = assay: Antiproliferative activity against human Hep3B cells assessed as reduction in cell viability after 48 hrs by MTT assay; format: functional, cell-based
Huh-7 [6] = assay: Antiproliferative activity against human Huh-7 cells assessed as reduction in cell viability after 48 hrs by MTT assay; format: functional, cell-based; conditions: Huh-7, 48 h
[7] = molecular target: Dual specificity mitogen-activated protein kinase kinase 1 (Homo sapiens) (UniProt Q02750); assay: Inhibition of MEK-1 (unknown origin) in presence of [gamma33]-ATP at 10 uM by liquid scintillation counting analysis relative to control
[8] = molecular target: T1, Serine/threonine-protein kinase A-Raf (Homo sapiens) (UniProt P10398); assay: Inhibition of A-Raf (unknown origin) in presence of [gamma33]-ATP at 10 uM by liquid scintillation counting analysis relative to control
T1 sequence (whole entry): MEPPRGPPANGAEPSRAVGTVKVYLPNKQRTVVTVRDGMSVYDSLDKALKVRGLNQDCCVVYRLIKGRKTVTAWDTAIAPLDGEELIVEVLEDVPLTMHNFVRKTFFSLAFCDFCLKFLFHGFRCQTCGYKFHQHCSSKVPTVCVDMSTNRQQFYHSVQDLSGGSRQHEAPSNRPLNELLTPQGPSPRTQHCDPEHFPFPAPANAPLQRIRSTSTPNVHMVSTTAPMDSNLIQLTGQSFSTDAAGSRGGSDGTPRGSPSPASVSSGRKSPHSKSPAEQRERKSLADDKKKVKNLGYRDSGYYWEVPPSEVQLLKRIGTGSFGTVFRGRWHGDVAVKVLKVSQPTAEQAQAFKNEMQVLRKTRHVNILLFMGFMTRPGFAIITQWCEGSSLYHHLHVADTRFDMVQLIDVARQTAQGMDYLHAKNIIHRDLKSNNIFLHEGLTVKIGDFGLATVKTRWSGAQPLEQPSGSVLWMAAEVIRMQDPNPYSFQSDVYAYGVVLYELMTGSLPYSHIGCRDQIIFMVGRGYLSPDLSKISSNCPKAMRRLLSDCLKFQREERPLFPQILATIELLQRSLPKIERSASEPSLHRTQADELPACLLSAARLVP

[9] = molecular target: Platelet-derived growth factor receptor beta (Homo sapiens) (UniProt P09619); assay: Inhibition of PDGFRbeta (unknown origin) in presence of [gamma33]-ATP at 10 uM by liquid scintillation counting analysis relative to control
[10] = molecular target: T2, Mast/stem cell growth factor receptor Kit (Homo sapiens, UniProt P10721); assay: Inhibition of CKIT (unknown origin) in presence of [gamma33]-ATP at 10 uM by liquid scintillation counting analysis relative to control
[11] = molecular target: T3, Platelet-derived growth factor receptor alpha (Homo sapiens, UniProt P16234); assay: Inhibition of PDGFRalpha (unknown origin) in presence of [gamma33]-ATP at 10 uM by liquid scintillation counting analysis relative to control
[12] = molecular target: RAF proto-oncogene serine/threonine-protein kinase (Homo sapiens) (UniProt P04049); assay: Inhibition of C-Raf (unknown origin) in presence of [gamma33]-ATP at 10 uM by liquid scintillation counting analysis relative to control
[13] = molecular target: T3, Platelet-derived growth factor receptor alpha; assay: Inhibition of PDGFRalpha (unknown origin) in presence of [gamma33]-ATP by liquid scintillation counting analysis
[14] = molecular target: T4, Vascular endothelial growth factor receptor 3 (Homo sapiens, UniProt P35916); assay: Inhibition of Flt4 (unknown origin) in presence of [gamma33]-ATP by liquid scintillation counting analysis
hERG (KCNH2) = hERG (KCNH2) (Homo sapiens, UniProt Q12809); assay: Potency index, ratio of E-4031 IC50 to compound IC50 for inhibition of human ERG; conditions: read-out: Ratio IC50
[15] = molecular target: T5, Vascular endothelial growth factor receptor 2 (Homo sapiens, UniProt P35968); assay: Inhibition of KDR (unknown origin) in presence of [gamma33]-ATP by liquid scintillation counting analysis
[16] = molecular target: T2, Mast/stem cell growth factor receptor Kit; assay: Inhibition of CKIT (unknown origin) in presence of [gamma33]-ATP by liquid scintillation counting analysis
HepG2 [17] = assay: Induction of apoptosis in human HepG2 cells assessed as increase in caspase 3/7 activity at 1.95 uM; format: functional
HepG2 [18] = assay: Induction of necrosis in human HepG2 cells assessed as increase in LDH release at 1.95 uM; format: functional
[19] = molecular target: T5, Vascular endothelial growth factor receptor 2; assay: Inhibition of VEGFR2 autophosphorylation in VEGF-stimulated human HepG2 cells after 2 hrs Western blot analysis; conditions: dose 1-3 µM
[20] = molecular target: T4, Vascular endothelial growth factor receptor 3; assay: Inhibition of Flt4 (unknown origin) in presence of [gamma33]-ATP at 10 uM by liquid scintillation counting analysis relative to control

T2 sequence (P10721 whole entry): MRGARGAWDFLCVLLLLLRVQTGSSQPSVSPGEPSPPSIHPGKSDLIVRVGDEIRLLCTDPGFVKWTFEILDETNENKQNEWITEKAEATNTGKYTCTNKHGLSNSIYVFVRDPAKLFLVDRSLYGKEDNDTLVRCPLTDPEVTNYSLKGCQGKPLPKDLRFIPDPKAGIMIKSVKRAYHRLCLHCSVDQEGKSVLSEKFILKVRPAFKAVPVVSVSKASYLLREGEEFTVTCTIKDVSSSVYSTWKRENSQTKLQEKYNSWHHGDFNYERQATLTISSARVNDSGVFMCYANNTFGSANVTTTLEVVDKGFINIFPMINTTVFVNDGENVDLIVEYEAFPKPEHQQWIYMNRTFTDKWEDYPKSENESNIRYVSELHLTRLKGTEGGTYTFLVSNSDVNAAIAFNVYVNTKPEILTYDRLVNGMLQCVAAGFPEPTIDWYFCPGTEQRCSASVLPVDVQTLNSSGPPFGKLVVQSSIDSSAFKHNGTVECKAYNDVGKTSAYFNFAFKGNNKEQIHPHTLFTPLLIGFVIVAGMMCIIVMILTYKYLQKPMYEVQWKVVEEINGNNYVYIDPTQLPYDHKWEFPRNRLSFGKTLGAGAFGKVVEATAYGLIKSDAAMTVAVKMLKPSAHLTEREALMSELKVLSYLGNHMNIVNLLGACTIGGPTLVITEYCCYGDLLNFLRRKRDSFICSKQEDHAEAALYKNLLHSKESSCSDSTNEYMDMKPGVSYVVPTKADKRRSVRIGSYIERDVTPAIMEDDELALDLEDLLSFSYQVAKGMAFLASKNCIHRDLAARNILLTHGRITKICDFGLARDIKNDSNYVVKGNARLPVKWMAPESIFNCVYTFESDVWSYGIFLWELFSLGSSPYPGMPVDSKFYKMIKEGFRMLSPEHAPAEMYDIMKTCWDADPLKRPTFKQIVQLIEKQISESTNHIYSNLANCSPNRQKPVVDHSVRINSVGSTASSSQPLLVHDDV
T3 sequence (P16234 whole entry): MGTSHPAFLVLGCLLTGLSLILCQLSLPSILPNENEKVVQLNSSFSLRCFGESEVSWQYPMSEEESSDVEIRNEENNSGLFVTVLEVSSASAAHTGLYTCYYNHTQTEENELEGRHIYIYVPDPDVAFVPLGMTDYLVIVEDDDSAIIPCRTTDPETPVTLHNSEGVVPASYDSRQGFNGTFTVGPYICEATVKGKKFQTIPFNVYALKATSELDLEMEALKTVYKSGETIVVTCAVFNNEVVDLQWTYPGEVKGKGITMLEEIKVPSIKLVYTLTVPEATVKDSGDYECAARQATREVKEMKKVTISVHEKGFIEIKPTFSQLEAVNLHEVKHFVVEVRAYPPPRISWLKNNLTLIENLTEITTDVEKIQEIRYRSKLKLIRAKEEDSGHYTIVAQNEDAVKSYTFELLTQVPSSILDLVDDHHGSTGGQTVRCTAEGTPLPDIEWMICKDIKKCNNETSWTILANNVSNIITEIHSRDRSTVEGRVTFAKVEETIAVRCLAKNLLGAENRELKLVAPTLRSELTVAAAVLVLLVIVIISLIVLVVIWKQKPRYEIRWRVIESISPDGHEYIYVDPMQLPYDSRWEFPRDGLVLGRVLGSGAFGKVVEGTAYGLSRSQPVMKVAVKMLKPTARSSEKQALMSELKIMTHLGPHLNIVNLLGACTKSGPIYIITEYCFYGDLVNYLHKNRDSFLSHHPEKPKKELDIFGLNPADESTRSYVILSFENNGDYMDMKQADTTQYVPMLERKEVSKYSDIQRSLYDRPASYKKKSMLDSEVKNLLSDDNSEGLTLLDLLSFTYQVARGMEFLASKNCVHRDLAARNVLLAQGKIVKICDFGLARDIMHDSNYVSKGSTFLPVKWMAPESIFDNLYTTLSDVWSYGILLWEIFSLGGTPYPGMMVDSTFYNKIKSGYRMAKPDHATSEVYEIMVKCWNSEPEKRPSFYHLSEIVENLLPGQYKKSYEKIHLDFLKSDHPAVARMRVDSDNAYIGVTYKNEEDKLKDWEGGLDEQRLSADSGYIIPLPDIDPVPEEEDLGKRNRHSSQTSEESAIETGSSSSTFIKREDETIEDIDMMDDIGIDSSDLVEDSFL
Platelet-derived growth factor receptor beta (Homo sapiens), sequence (P09619 whole entry): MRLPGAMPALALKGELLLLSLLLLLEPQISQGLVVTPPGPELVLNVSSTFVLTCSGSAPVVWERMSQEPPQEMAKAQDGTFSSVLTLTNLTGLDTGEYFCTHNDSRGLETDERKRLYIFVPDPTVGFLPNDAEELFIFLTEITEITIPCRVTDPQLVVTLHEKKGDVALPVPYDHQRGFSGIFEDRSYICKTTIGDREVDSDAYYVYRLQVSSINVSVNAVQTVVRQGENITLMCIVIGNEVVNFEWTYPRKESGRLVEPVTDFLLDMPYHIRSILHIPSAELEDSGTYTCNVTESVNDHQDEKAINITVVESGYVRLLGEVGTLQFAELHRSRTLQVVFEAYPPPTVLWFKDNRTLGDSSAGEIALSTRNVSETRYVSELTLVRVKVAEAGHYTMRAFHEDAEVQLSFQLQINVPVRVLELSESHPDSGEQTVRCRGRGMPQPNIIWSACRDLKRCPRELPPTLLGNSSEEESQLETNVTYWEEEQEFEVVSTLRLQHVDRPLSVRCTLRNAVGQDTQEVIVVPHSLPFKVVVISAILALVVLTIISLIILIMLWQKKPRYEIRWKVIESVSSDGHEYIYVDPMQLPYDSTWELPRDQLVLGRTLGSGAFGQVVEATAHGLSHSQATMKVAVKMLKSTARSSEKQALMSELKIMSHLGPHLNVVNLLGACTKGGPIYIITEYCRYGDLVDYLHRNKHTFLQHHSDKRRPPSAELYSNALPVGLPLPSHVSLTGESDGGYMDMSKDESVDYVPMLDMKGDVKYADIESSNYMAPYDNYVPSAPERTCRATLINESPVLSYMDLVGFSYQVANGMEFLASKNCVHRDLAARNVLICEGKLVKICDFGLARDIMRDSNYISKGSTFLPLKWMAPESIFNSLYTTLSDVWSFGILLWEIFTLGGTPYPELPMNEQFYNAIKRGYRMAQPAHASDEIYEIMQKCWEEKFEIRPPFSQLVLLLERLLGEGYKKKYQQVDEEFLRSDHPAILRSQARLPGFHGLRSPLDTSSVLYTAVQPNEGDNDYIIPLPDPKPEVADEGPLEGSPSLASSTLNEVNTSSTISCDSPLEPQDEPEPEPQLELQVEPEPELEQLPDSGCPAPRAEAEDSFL
Dual specificity mitogen-activated protein kinase kinase 1 (Homo sapiens), sequence (Q02750 whole entry): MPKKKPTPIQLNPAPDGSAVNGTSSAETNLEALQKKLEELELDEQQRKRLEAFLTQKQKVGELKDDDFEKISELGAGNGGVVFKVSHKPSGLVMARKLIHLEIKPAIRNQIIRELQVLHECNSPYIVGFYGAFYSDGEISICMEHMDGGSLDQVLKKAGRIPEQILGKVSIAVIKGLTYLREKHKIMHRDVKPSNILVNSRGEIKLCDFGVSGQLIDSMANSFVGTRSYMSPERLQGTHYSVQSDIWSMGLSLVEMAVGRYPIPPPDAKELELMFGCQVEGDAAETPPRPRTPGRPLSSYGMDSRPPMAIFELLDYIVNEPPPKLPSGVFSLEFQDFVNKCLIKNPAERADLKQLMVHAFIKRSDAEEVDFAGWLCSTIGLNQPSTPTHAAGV
T5 sequence (P35968 whole entry): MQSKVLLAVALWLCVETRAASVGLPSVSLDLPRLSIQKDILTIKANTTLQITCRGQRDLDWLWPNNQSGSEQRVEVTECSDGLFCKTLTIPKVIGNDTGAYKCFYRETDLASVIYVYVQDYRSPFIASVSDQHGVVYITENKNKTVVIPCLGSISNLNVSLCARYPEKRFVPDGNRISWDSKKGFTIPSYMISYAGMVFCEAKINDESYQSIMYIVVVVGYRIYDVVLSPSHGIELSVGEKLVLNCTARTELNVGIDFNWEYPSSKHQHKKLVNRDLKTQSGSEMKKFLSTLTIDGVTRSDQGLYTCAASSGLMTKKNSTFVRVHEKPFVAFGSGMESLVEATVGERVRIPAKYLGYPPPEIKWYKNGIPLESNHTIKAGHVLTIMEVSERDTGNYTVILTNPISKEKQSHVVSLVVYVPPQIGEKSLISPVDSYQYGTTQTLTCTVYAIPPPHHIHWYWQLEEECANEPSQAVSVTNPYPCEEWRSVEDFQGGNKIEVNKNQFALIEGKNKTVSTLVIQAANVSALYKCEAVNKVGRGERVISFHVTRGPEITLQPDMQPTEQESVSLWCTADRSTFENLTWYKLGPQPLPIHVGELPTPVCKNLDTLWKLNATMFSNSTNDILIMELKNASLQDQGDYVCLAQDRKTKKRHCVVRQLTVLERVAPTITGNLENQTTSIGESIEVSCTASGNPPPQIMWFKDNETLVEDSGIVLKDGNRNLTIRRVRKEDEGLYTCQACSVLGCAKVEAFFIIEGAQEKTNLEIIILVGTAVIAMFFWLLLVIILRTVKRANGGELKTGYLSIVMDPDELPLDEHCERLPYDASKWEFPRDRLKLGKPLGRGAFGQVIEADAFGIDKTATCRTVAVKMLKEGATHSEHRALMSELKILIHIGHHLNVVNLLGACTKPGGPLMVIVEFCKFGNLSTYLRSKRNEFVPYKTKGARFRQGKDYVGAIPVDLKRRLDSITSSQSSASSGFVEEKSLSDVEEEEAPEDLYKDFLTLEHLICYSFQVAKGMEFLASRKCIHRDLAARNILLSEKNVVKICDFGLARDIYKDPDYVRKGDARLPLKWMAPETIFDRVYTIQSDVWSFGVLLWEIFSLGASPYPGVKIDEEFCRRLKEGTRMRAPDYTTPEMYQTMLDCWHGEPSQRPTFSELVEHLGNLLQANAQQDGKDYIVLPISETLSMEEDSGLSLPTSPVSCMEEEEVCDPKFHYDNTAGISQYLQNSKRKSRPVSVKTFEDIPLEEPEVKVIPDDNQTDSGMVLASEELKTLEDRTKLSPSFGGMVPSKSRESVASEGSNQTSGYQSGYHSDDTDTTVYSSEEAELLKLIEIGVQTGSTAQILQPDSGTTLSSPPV

Row | SMILES | IC50 (WI-38) [µM] | viability at 10 µM (Huh-7 [1]) [%] | viability at 10 µM (HepG2 [2]) [%] | viability at 10 µM (Hep 3B2 [4]) [%] | other results
1 | CNC(=O)c1cc(-n2ccc3cc(NC(=O)c4cccc(C(F)(F)F)c4)ccc32)ccn1 | 6.5 | 77 | 34 | 72 | IC50 (HepG2 [3]): 2.67 µM
2 | CNC(=O)c1cc(-n2ccc3cc(NC(=O)c4ccc(Cl)c(Cl)c4)ccc32)ccn1 | – | 61 | 80 | 79 | –
3 | CNC(=O)c1cc(-n2ccc3cc(NC(=O)c4cc(C(F)(F)F)cc(C(F)(F)F)c4)ccc32)ccn1 | – | 77 | 90 | 111 | –
4 | CNC(=O)c1cc(-n2ccc3cc(NC(=O)c4ccc(F)c(C(F)(F)F)c4)ccc32)ccn1 | – | 40 | 67 | 59 | –
5 | CNC(=O)c1cc(-n2ccc3cc(NS(=O)(=O)c4cccc(C(F)(F)F)c4)ccc32)ccn1 | – | 94 | 88 | 84 | –
6 | CNC(=O)c1cc(-n2ccc3cc(NC(=O)Nc4ccc(Cl)c(Cl)c4)ccc32)ccn1 | 23.1 | 43 | 57 | 46 | IC50 (Hep 3B2 [5]): 7.94 µM; IC50 (Huh-7 [6]): 7.96 µM
7 | CNC(=O)c1cc(-n2ccc3cc(NS(=O)(=O)c4ccc(Cl)c(C(F)(F)F)c4)ccc32)ccn1 | – | 101 | 97 | 92 | –
8 | CNC(=O)c1cc(-n2ccc3cc(NC(=O)Nc4ccc(F)c(C(F)(F)F)c4)ccc32)ccn1 | – | 65 | 67 | 49 | –
9 | CNC(=O)c1cc(-n2ccc3cc(NC(=O)c4ccc(N5CCOCC5)c(C(F)(F)F)c4)ccc32)ccn1 | 8.48 | 46 | 72 | 53 | IC50 (HepG2 [3]): 237 µM
10 | CNC(=O)c1cc(Oc2ccc(NC(=O)Nc3ccc(Cl)c(C(F)(F)F)c3)cc2)ccn1 [SORAFENIB] | > 30 | 21 | 35 | 33 | IC50 (Hep 3B2 [5]): 8.62 µM; inhibition [7]: 37.7%; inhibition [8]: 99%; inhibition [9]: 99.1%; inhibition [10]: 65.8%; IC50 (HepG2 [3]): 7.22 µM; inhibition [11]: 99.4%; IC50 (Huh-7 [6]): 7.55 µM
11 | CNC(=O)c1cc(-n2ccc3cc(NS(=O)(=O)c4ccccc4)ccc32)ccn1 | – | 105 | 98 | 93 | –
12 | CNC(=O)c1cc(-n2ccc3cc(NC(=S)Nc4cc(C(F)(F)F)cc(C(F)(F)F)c4)ccc32)ccn1 | – | 40 | 53 | 55 | –
13 | CNC(=O)c1cc(-n2ccc3cc(NC(=S)Nc4cccc(C(F)(F)F)c4)ccc32)ccn1 | – | 109 | 81 | 99 | –
14 | CNC(=O)c1cc(-n2ccc3cc(NC(=S)Nc4ccc(Cl)c(C(F)(F)F)c4)ccc32)ccn1 | 28.8 | 76 | 60 | 40 | IC50 (Hep 3B2 [5]): 13.9 µM; IC50 (Huh-7 [6]): 21.5 µM
15 | CNC(=O)c1cc(-n2ccc3cc(NC(=O)c4ccccc4)ccc32)ccn1 | – | 105 | 99 | 29 | –
16 | CNC(=O)c1cc(-n2ccc3cc(NC(=O)Nc4ccc(N5CCN(C)CC5)c(C(F)(F)F)c4)ccc32)ccn1 | > 30 | 20 | 27 | 92 | IC50 (Hep 3B2 [5]): 8.01 µM; inhibition [12]: -0.5%; IC50 [13]: > 5 µM; inhibition [7]: 11.5%; IC50 [14]: 0.0957 µM; inhibition [8]: -4%; selectivity ratio (hERG (KCNH2)): 3720; IC50 [15]: 0.173 µM; IC50 [16]: 5 µM; Activity (HepG2 [17]): 67.45%; Activity (HepG2 [18]): 21.5%; inhibition [9]: 47.5%; inhibition [10]: 70.5%; IC50 (HepG2 [3]): 1.95 µM; inhibition [11]: 71.5%; IC50 (Huh-7 [6]): 4.31 µM; inhibition [19]: Dose-dependent effect; inhibition [20]: 93.5%
17 | CNC(=O)c1cc(-n2ccc3cc(NC(=S)Nc4ccc(Cl)c(Cl)c4)ccc32)ccn1 | – | 89 | 79 | 86 | –
18 | CNC(=O)c1cc(-n2ccc3cc(NS(=O)(=O)c4cc(C(F)(F)F)cc(C(F)(F)F)c4)ccc32)ccn1 | – | 98 | 96 | 92 | –
19 | CNC(=O)c1cc(-n2ccc3cc(NC(=O)Nc4cccc(C(F)(F)F)c4)ccc32)ccn1 | – | 68 | 76 | 58 | –
20 | CNC(=O)c1cc(-n2ccc3cc(NC(=O)Nc4ccc(N5CCOCC5)c(C(F)(F)F)c4)ccc32)ccn1 | > 30 | 28 | 47 | 27 | IC50 (HepG2 [3]): 9.35 µM; IC50 (Huh-7 [6]): 5.6 µM
21 | CNC(=O)c1cc(-n2ccc3cc(NC(=O)Nc4ccccc4)ccc32)ccn1 | – | 74 | 82 | 66 | –
22 | CNC(=O)c1cc(-n2ccc3cc(NC(=O)c4ccc(Cl)c(C(F)(F)F)c4)ccc32)ccn1 | – | 42 | 32 | 54 | –
23 | CNC(=O)c1cc(-n2ccc3cc(NS(=O)(=O)c4ccc(Cl)c(Cl)c4)ccc32)ccn1 | – | 94 | 97 | 92 | –
24 | CNC(=O)c1cc(-n2ccc3cc(NC(=S)Nc4ccccc4)ccc32)ccn1 | – | 121 | 100 | 64 | –
25 | CNC(=O)c1cc(-n2ccc3cc(NC(=O)Nc4ccc(Cl)c(C(F)(F)F)c4)ccc32)ccn1 | 26.7 | 40 | 55 | 53 | IC50 (Hep 3B2 [5]): 12.3 µM; IC50 (Huh-7 [6]): 15.4 µM
26 | CNC(=O)c1cc(-n2ccc3cc(NC(=O)Nc4cc(C(F)(F)F)cc(C(F)(F)F)c4)ccc32)ccn1 | > 30 | 30 | 55 | 73 | IC50 (Hep 3B2 [5]): 29.8 µM; IC50 (Huh-7 [6]): 5.01 µM

Source: ChEMBL document CHEMBL4732124 (Eur J Med Chem, 2021)
